As usually defined, the Kd is a measure of binding affinity in units of concentration. Read a high Kd as weaker binding.

Among the data in article PMC7296828 (Biochemistry, 2020) are Kd values, retold here.

This experiment concerns the target T1, Ribonuclease 6 (RNase 6, RNase K6) (Homo sapiens, UniProt Q93091).
T1 sequence (Q93091 24-150): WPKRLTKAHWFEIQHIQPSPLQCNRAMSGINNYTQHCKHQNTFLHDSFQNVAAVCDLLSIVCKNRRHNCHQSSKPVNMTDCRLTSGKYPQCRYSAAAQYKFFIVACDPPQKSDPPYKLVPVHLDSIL
The experiment in a line: X-ray crystal structure. It is filed as binding.

In turn, `Nc1ncnc2c1ncn2[C@@H]1O[C@H](COP(=O)(O)O)[C@@H](O)[C@H]1O` [5’-AMP] returned a Kd of 154 ± 5 µM.
